In US20250032430A1, “USES OF RHODOQUINONE FOR THE TREATMENT OF DISEASE” (Whitehead Institute for Biomedical Research, priority 2021, published 2025):
Where two headings read alike, the source gives them in different places.

Experiments:
[1] = test system: kidney derived cancer cell line; assay: Western blot of kidney derived cancer cell line cultured in hypoxia (NRF2, PDH phosphorylation); assay type: cell-based; settings: hypoxia for 5 days
Method: This includes NRF2 accumulation, which is a sensor of oxidative stress, and phosphorylation on PDH, which is a marker of AMPK activation. AMPK senses AMP, and is hyperactive when cells have “low energy”
Western Blots: Adherent cells were lysed in RIPA buffer (150 mM NaCl, 50 mM Tris-HCl, pH 7.5, 0.1% SDS, 1% Triton-X 100 (Sigma), 0.5% deoxycholate (Sigma), complete EDTA-free protease inhibitor (Sigma)) and clarified by centrifugation. Protein content was quantified using a Pierce BCA Protein Assay Kit (Life Technologies) and 30-50 μg protein were loaded on 12% Tris-Glycine Novex Gels (Invitrogen). Proteins were subsequently transferred to a 0.45 μm PVDF membrane (Sigma). Primary antibodies were used at the following dilutions in 5% BSA:SDHA (Proteintech; 1:1000), NDUFV1 (Abcam; 1:1000), Total OXPHOS Rodent WB Antibody Cocktail-containing UQCRC2, SDHB, and ATP5A (Abcam; 1:1000), COX IV (Cell Signaling Technology; 1:1000), MT-ND5 (Abcam; 1:1000), FLAG (Sigma; 1:1000), HIF1a (Cell Signaling Technology; 1:1000), ATP citrate lyase (Abcam; 1:1000), Citrate Synthase (Cell Signaling; 1:1000). Secondary antibodies were used at the following dilutions in 5% Milk:Anti-rabbit IgG HRP-linked Antibody (1:5000, Cell Signaling Technology), Anti-mouse IgG HRP-linked Antibody (1:5000, Cell Signaling Technology). […]

complex 1 and DHODH = assay: Proliferation of WT and RquA cells in media without pyruvate or uridine; assay type: cell-based; settings: media − pyruvate, − uridine
Description: Proliferation of WT and RquA cells in media that forces cells to use maximal complex 1 activity (− pyruvate) and maximal DHODH activity (− uridine). Complex 1 and DHODH are enzymes in the ETC that require an electron carrier (classically UQ) to catalyze their function. […] Rotenone was used as a control and inhibits complex 1 activity. Brequinar was used as a control and inhibits DHODH activity.

SDH complex = assay: Ex vivo net direction of the SDH complex in mouse tissues; settings: ex vivo antimycin treatment of liver, kidney, heart, skeletal muscle
Method: (§1) Ex vivo stable isotope tracing on tissues: Tissues were excised from mice and washed in 1×PBS. Tissues were then cut into small pieces and placed in the appropriate stable isotope tracing media. Stable isotope tracing media contained either ^13C5^15N2-glutamine (Sigma) or 13C4-aspartate (Sigma) dissolved in DMEM, 5% FBS, 1% P/S. For ex vivo tracing experiments performed on the brain, the same media was used without FBS. Tissues were incubated for the designated time at 37° C. in a normal or hypoxia tissue culture incubator. Tissues were removed from the media, washed with PBS, and flash frozen in liquid nitrogen. Samples could be stored at −80° C. until metabolites were isolated.
Isolation of metabolites from tissues: Tissues were flash frozen and powderized with a mortar and pestle in a liquid nitrogen bath. Approximately 30 mg of tissue powder was transferred into eppendorf tubes and re-suspended in 800 uL ice-cold LC-MS grade 60:40 Methanol:Water (ThermoFisher). Samples were vortexed for 10 minutes at 4° C. […] The top layer was transferred to a new tube, dried down in a speedvac, and subsequently stored at −80° C. until they were analyzed by LC-MS. […] Protein in each sample was quantified using the Pierce BCA Protein Assay Kit (Life Technologies). […]

complex I = assay: NAD+/NADH ratio in cells; assay type: cell-based, human; settings: SDHB-null cells treated with antimycin versus wild-type cells treated with antimycin
Method: Next, fumarate reduction was tested to determine if it sustains complex I activity in cells incapable of using O2 as a terminal electron acceptor. Both the NAD+/NADH ratio, which is an indicator of complex I-mediated NADH reoxidation, and the mitochondrial membrane potential (ΔΨ^Mito) to which complex I contributes via proton pumping. […] Thus, fumarate reduction supports partial complex I activity, specifically NADH reoxidation and ΔΨ^Mito, in cells incapable of reducing O2 in the ETC.

DHODH [2] = assay: Ex vivo DHODH activity in mouse tissues (13C4-aspartate into 13C4-orotate); settings: 2 μM antimycin
Method: Because net-reversal of the SDH complex supports DHODH activity in cultured cells when O2 reduction is blocked (FIG. 3), mouse tissues were tested. DHODH activity was measured in tissues that are capable (the liver and kidney) or incapable (the heart and gastrocnemius muscle) of net-reversing the SDH complex when O2 reduction is limited. […] Next, DHODH activity was assessed via ^13C4-aspartate incorporation into ^13C4-orotate, because labelling of the ^13C3-UTP pool was undetectable in most tissues.
as §1, with “Tissues were removed from the media, washed with PBS, and flash frozen in liquid nitrogen. Samples could be stored at −80° C. until metabolites were isolated.” left out
Isolation of metabolites from tissues: Tissues were flash frozen and powderized with a mortar and pestle in a liquid nitrogen bath. […] The top layer was transferred to a new tube, dried down in a speedvac, and subsequently stored at −80° C. until they were analyzed by LC-MS. […] Protein in each sample was quantified using the Pierce BCA Protein Assay Kit (Life Technologies). […]

[3] = test system: liver, kidney, heart, and skeletal muscle; assay: Ex vivo O2 consumption of mouse tissues
Method: Oxygen Consumption Rate (Seahorse): Respiration was measured on intact 143B cells and on mitochondria purified from tissue on the Seahorse XFe-96 Analyzer (Seahorse Bioscience). Cells were incubated in a non-CO2 37° C. incubator in serum-free Seahorse XF RPMI Media (Seahorse Bioscience, Catalog #103336) supplemented with 5 mM glucose, 2 mM glutamine, and 1 mM pyruvate. Oxygen consumption rate (OCR) was measured over a period of 30 minutes. Oxygen consumption rate was also measured on mitochondria purified from mouse tissues. Mitochondria were incubated in MAS buffer (70 mM sucrose, 220 mM mannitol, 10 mM KH2PO4, 5 mM MgCl2, 2 mM HEPES pH 7.2, 1 mM EGTA, 2% BSA) supplemented with 2 mM ADP, 5 mM glutamate, 5 mM malate, 5 mM pyruvate, and 2.5 mM succinate. Oxygen consumption rate (OCR) was measured over a period of 30 minutes.

DHODH [4] = molecular target: DHODH (Homo sapiens, UniProt Q02127); settings: for de novo UTP biosynthesis (13C3-UTP generation, DHODH activity): wild-type 143B cells, 13C4-aspartate tracing 8 hours, 500 nM antimycin, 2 μM brequinar
DHODH (Homo sapiens, UniProt Q02127), sequence (Q02127 whole entry): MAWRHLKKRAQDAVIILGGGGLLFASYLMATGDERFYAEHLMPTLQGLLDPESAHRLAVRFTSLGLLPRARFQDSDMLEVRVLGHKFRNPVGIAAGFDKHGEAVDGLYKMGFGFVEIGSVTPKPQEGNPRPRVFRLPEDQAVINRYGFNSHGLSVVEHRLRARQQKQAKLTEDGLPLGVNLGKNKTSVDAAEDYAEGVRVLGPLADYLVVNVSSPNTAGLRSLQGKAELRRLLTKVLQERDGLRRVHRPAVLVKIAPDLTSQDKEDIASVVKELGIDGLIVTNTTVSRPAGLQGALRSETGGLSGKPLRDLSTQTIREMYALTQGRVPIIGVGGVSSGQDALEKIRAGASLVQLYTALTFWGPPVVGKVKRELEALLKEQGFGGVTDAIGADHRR
Method: Stable isotope tracing in cells: Cells were seeded 24 hours prior to the experiment in 6-well dishes at 70% density. For stable isotope tracing of glutamine, glutamine-free DMEM (ThermoFisher) was supplemented with 2 mM ^13C5^15N2-glutamine (Sigma), 1 mM pyruvate, 5% FBS, 1% P/S, 0.1 mg/mL uridine. For stable isotope tracing of aspartate, DMEM containing 5% FBS, and 1% penicillin and streptomycin, and 0.1 mg/mL uridine (Sigma) was supplemented with the designated amount of 13C4-aspartate (Sigma) and the pH adjusted to 7.4. Uridine was left out of the media for stable isotope tracing experiments measuring nucleotide biosynthesis. Unless otherwise stated, for all experiments, cells were treated for 8 hours and metabolites were isolated as described below. Relevant compounds were added at the start of the incubation periods.
Isolation of metabolites from adherent cells: To isolate metabolites, media was removed, cells were washed 2 times with ice cold 1×PBS, and wells were covered in LC-MS grade 80:20 Methanol:Water (ThermoFisher). Plates were scraped on dry ice and lysates were collected into eppendorf tubes. Lysates were vortexed for 10 minutes at 4° C. and centrifuged at 16,000×g for 10 minutes at 4° C. Supernatants were immediately dried down in a Refrigerated CentriVap Benchtop Vacuum Concentrator connected to a CentriVap-105 Cold Trap (Labconco). Dried pellets were stored at −80° C. until they were run on LC-MS.
Liquid Chromatography and Mass Spectrometry (polar): A QExactive bench top orbitrap mass spectrometer equipped with an Ion Max source and a HESI II probe coupled to a Dionex UltiMate 3000 HPLC system (Thermo Fisher Scientific) was used to perform all LC-MS experiments. The instrument underwent mass calibration using the standard calibration mixture every 7 days. 2 μL of re-suspended polar metabolite samples were injected onto a SeQuant ZIC-pHILIC 5 μm 150×2.1 mm analytical column equipped with a 2.1×20 mm guard column (MilliporeSigma). The column oven was held at 25° C. and the autosampler tray was held at 4° C. Buffer A was comprised of 20 mM ammonium carbonate, 0.1% ammonium hydroxide. Buffer B was comprised of 100% acetonitrile. The chromatographic gradient was run at a flow rate of 0.150 mL/min as follows: 0-20 min: linear gradient from 80-20% B; 20-20.5 min: linear gradient from 20-80% B; 20.5-28 min: hold at 80% B. The mass spectrometer was operated in full-scan, polarity-switching mode, with the spray voltage set to 3.0 kV, the heated capillary at 275° C., and the HESI probe at 350° C. The sheath gas flow was 40 units, the auxiliary gas flow was 15 units, and the sweep gas flow was 1 unit. MS data was collected in a range of m/z=70-1000. The resolution set at 70,000, the AGC target at 1×106, and the maximum injection time at 20 msec. An additional scan (m/z=220-700) was included in negative mode only to enhance detection of nucleotides.

Substance	oxidative and bioenergetic stresses (NRF2 accumulation, phosphorylation on PDH) [1]	support of complex 1 and DHODH activities (proliferation) (complex 1 and DHODH)	net-reversal of the SDH complex (SDH complex)	NAD+/NADH ratio (complex I)	levels of 13C4-orotate (DHODH activity) (DHODH [2]; ex vivo heart and gastrocnemius muscle)	levels of 13C4-orotate (DHODH activity) (DHODH [2]; ex vivo liver and kidney)	O2 consumption [3]	DHODH activity (13C3-UTP production) (DHODH [4])	DHODH activity (13C4-aspartate into 13C3-UTP) (DHODH [4]; combined inhibition of complex III with antimycin and complex I with piericidin)	de novo UTP biosynthesis (13C3-UTP generation, DHODH activity) (DHODH [4])	de novo UTP biosynthesis (13C3-UTP generation, DHODH activity) (DHODH [4]; listed as Antimycin)
rhodoquinone	protects against oxidative and bioenergetic stresses	can carry electrons in the ETC and support complex 1 and DHODH activities									
antimycin			only the liver and kidney maintained net-reversal	lower	reduced	remained unchanged	ablated	ablated	no effect	did not decrease	no effect
